Source: patent US12059425B2, “Heterocyclic compounds and uses thereof” (Kumquat Biosciences Inc., priority 2022, dated 2024)

Columns and labels:
K-Ras G12S = target: T1, K-Ras G12S (Homo sapiens, UniProt P01116, G12S); assay: PPI-HTRF assay, K-Ras G12S / SOS1 interaction; assay type: biochemical; settings: read-out: PPI-HTRF-5 nM (K-Ras G12S IC50)
T1 construct: made in house; host or cells: E. coli, e.g. BL21 (DE3)
Summary of the method: (§1)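 GST-tagged K-Ras (WT or mutant) bound to anti-GST-Eu was mixed with His-hSOS1 bound to anti-6His-XL665 in pH 7.4 HEPES/NaCl/DTT/BSA/Igepal buffer. After ~10 min or longer, HTRF was read (ex 337 nm, em 620/665 nm). IC50 was derived from the 665/620 ratio, with duplicates tested from 10 μM down to 0.01 μM.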

wildtype K-Ras = target: T2, wildtype K-Ras (Homo sapiens, UniProt P01116); assay: PPI-HTRF assay, wildtype K-Ras / SOS1 interaction; assay type: biochemical; settings: HTRF, K-Ras wt; read-out: PPI-HTRF-5 nM (K-Ras wt IC50)
T2 construct: made in house; host or cells: E. coli, e.g. BL21 (DE3)
T2 sequence (P01116 1-188 isoform P01116-2): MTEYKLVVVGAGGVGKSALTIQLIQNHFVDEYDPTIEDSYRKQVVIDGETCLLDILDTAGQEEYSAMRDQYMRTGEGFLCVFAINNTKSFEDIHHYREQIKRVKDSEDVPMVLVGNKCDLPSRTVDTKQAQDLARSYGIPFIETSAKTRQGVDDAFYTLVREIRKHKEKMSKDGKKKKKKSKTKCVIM
Summary of the method: as §1

SW620 cells = assay: Ras cellular assay, cell proliferation SW620; assay type: cell-based; settings: Homo sapiens, SW-620
Text: For example, this assay can be also used to assess selective growth inhibition of a mutant Ras protein relative to a wildtype, or relative to a different mutant Ras protein.

K-Ras G12V = target: T3, K-Ras G12V (Homo sapiens, UniProt P01116, G12V); assay: PPI-HTRF assay, K-Ras G12V / SOS1 interaction; assay type: biochemical; settings: HTRF, K-Ras G12V; read-out: PPI-HTRF-5 nM (K-Ras G12V IC50)
T3 construct: made in house; host or cells: E. coli, e.g. BL21 (DE3)
T3 sequence (P01116 1-188 isoform P01116-2 G12V): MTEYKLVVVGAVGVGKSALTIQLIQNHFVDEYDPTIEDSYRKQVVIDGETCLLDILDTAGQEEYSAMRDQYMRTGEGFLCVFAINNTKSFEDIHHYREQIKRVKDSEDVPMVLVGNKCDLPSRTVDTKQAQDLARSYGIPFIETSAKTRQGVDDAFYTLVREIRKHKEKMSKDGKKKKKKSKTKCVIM
Summary of the method: as §1

A549 cells = assay: Ras cellular assay, cell proliferation A549; assay type: cell-based; settings: Homo sapiens
Summary of the method: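 G12S-mutant A549 cells (800/well) in RPMI-1640 plus 10% heat-inactivated FBS, standard or ultra-low attachment 384-well plates, dosed the day after plating with a 10-point 3-fold series. Viability by CellTiter-Glo luminescence about 6 days later; IC50 from four-parameter fit.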

GP2D cells = assay: Ras cellular assay, cell proliferation GP2D; assay type: cell-based
Summary of the method: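 GP2D cells (G12D Ras mutant) seeded (e.g., 800/well) and treated the next day with a dilution series (e.g., 9-point, 3-fold). After approximately 5 days, viability measured by CellTiter-Glo luminescence; IC50 from four-parameter fit.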

K-Ras G12D = target: T4, K-Ras G12D (Homo sapiens, UniProt P01116, G12D); assay: PPI-HTRF assay, K-Ras G12D / SOS1 interaction; assay type: biochemical; settings: HTRF, K-Ras G12D; read-out: PPI-HTRF-5 nM (K-Ras G12D IC50)
T4 construct: made in house; host or cells: E. coli, e.g. BL21 (DE3)
T4 sequence (P01116 1-188 isoform P01116-2 G12D): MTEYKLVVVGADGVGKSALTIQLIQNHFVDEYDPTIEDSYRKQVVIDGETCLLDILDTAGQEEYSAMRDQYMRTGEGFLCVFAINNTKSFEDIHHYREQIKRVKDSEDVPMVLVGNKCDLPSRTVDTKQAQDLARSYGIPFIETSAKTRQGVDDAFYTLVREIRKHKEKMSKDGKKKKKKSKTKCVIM
Summary of the method: as §1

T1 sequence (P01116 1-188 isoform P01116-2 G12S): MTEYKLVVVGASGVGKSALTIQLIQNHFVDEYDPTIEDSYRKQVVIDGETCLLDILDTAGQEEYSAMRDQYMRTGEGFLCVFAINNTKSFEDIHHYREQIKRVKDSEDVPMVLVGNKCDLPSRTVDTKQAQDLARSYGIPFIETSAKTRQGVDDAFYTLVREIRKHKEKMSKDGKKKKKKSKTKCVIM

| SMILES | IC50 (K-Ras G12S) [µM] | IC50 (wildtype K-Ras) [µM] | IC50 (SW620 cells) [µM] | IC50 (K-Ras G12V) [µM] | IC50 (A549 cells) [µM] | IC50 (K-Ras G12D) [µM] | IC50 (GP2D cells) [µM] |
| --- | --- | --- | --- | --- | --- | --- | --- |
| N#Cc1c(N)sc2c(F)ccc(-c3c(Cl)c4c5c(nc(OCC67CCCN6C[C@H](F)C7)nc5c3F)N3CC(C#N)CCC3CO4)c12 (stereo partly drawn) [compound 150, 5-(2-amino-3-cyano-7-fluorobenzo[b]thiophen-4-yl)-6-chloro-4-fluoro-2-(((2R)-2-fluorotetrahydro-1H-pyrrolizin-7a(5H)-yl)methoxy)-8,8a,9,10,11,12-hexahydropyrido[2′,1′:3,4][1,4]oxazepino [5,6,7-de]quinazoline-11-carbonitrile] | < 5 | < 5 | < 5 | < 5 | < 5 | < 5 | < 5 |
| N#Cc1c(N)sc2c(F)ccc(-c3c(Cl)c4c5c(nc(OC[C@@]67CCCN6C[C@H](F)C7)nc5c3F)N3[C@H](CO4)C[C@@H]4OCC[C@@H]43)c12 [compound 133, 2-amino-4-((5aS,6aS,9aS)-3-chloro-1-fluoro-12-(((2R,7aS)-2-fluorotetrahydro-1H-pyrrolizin-7a(5H)-yl)methoxy)-5a,6,6a,8,9,9a-hexahydro-5H-furo[2″,3″:4′,5′]pyrrolo[2′,1′:3,4][1,4]oxazepino[5,6,7-de]quinazolin-2-yl)-7-fluorobenzo[b]thiophene-3-carbonitrile] | < 5 | < 5 | < 5 | < 5 | < 5 | < 5 | < 5 |
| N#Cc1c(N)sc2c(F)ccc(-c3c(Cl)c4c5c(nc(OC[C@@]67CCCN6C[C@H](F)C7)nc5c3F)N3CCC[C@H]3CCO4)c12 [compound 115, 2-amino-4-((13aS)-10-chloro-8-fluoro-6-(((2R,7aS)-2-fluorotetrahydro-1H-pyrrolizin-7a(5H)-yl)methoxy)-1,2,3,12,13,13a-hexahydropyrrolo[1′,2′:5,6][1,5]oxazocino [4,3,2-de]quinazolin-9-yl)-7-fluorobenzo[b]thiophene-3-carbonitrile] | < 5 | < 5 | < 5 | < 5 | < 5 | < 5 | < 5 |
| CC(=O)N1CC2Oc3c(Cl)c(-c4ccc(F)c5sc(N)c(C#N)c45)c(F)c4nc(OC[C@@]56CCCN5C[C@H](F)C6)nc(c34)N(C)C2C1 (stereo partly drawn) [compound 172, 4-(9-acetyl-6-chloro-4-fluoro-2-(((2R,7aS)-2-fluorotetrahydro-1H-pyrrolizin-7a(5H)-yl)methoxy)-11-methyl-7a,8,9,10,10a,11-hexahydropyrrolo[3′,4′:2,3][1,4]oxazepino [5,6,7-de]quinazolin-5-yl)-2-amino-7-fluorobenzo[b]thiophene-3-carbonitrile] | < 5 | < 5 | > 5 | < 5 | > 5 | < 5 | > 5 |

Now from value to compound, other results behind:

| IC50 (K-Ras G12S) [µM] | IC50 (wildtype K-Ras) [µM] | IC50 (SW620 cells) [µM] | IC50 (K-Ras G12V) [µM] | IC50 (A549 cells) [µM] | IC50 (K-Ras G12D) [µM] | SMILES | IC50 (GP2D cells) [µM] |
| --- | --- | --- | --- | --- | --- | --- | --- |
| < 5 | < 5 | < 5 | < 5 | < 5 | < 5 | N#Cc1c(N)sc2c(F)ccc(-c3c(Cl)c4c5c(nc(OC[C@@]67CCCN6C[C@H](F)C7)nc5c3F)N3C(CCC3COC(F)F)CO4)c12 (stereo partly drawn) [compound 161, 2-amino-4-(6-chloro-11-((difluoromethoxy)methyl)-4-fluoro-2-(((2R,7aS)-2-fluorotetrahydro-1H-pyrrolizin-7a(5H)-yl)methoxy)-8a,9,10,11-tetrahydro-8H-pyrrolo[2′,1′:3,4][1,4]oxazepino[5,6,7-de]quinazolin-5-yl)-7-fluorobenzo[b]thiophene-3-carbonitrile] | < 5 |
| < 5 | < 5 | > 5 | < 5 | > 5 | < 5 | CN1c2nc(OC[C@@]34CCCN3C[C@H](F)C4)nc3c(F)c(-c4ccc(F)c5sc(N)c(C#N)c45)c(Cl)c(c23)OC2CNCC21 (stereo partly drawn) [compound 214, 2-amino-4-(6-chloro-4-fluoro-2-(((2R,7aS)-2-fluorotetrahydro-1H-pyrrolizin-7a(5H)-yl)methoxy)-11-methyl-7a,8,9,10,10a,11-hexahydropyrrolo[3′,4′:2,3][1,4]oxazepino [5,6,7-de]quinazolin-5-yl)-7-fluorobenzo[b]thiophene-3-carbonitrile] | > 5 |
| < 5 | < 5 | < 5 | < 5 | < 5 | < 5 | N#Cc1c(N)sc2c(F)ccc(-c3c(Cl)c4c5c(nc(OC[C@@]67CCCN6C[C@H](F)C7)nc5c3F)N3CCCC(O)C3CO4)c12 (stereo partly drawn) [compound 157, 2-amino-4-(6-chloro-4-fluoro-2-(((2R,7aS)-2-fluorotetrahydro-1H-pyrrolizin-7a(5H)-yl)methoxy)-9-hydroxy-8,8a,9,10,11,12-hexahydropyrido[2′,1′:3,4][1,4]oxazepino [5,6,7-de]quinazolin-5-yl)-7-fluorobenzo[b]thiophene-3-carbonitrile] | < 5 |
